{
  "source": "paper PMC12657457",
  "about": "(Frontiers in Pharmacology, 2025)",
  "key": {"human plasma BChE": {"biological_target": "T1, human plasma BChE (Homo sapiens, UniProt P06276)", "T1 construct": "pooled human plasma (source of BChE) were used as enzyme sources; from tissue; host or cells: pooled human plasma from patients with mild-to-moderate AD", "T1 sequence (P06276 29-602)": "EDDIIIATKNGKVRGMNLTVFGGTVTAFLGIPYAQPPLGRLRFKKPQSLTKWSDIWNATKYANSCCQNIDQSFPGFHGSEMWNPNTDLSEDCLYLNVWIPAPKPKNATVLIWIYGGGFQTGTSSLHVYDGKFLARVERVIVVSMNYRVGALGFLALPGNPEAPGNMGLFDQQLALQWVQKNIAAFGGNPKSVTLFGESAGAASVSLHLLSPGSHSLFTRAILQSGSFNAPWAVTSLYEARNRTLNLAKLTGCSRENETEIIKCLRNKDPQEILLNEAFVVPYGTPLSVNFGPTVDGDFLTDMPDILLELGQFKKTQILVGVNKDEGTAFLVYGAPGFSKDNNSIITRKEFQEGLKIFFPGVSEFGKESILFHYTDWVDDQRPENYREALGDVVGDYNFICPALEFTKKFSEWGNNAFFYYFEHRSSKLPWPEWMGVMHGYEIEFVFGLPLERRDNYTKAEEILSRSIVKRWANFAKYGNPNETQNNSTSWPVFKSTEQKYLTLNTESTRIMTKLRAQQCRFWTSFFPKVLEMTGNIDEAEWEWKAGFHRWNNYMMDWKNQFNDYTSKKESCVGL", "experiment": "Ex vivo enzyme-inhibition kinetic analysis (Ki and inhibition mode)", "format": "biochemical", "conditions": "for Inhibition mode (BChE): best-fit nonlinear regression model", "protocol": "(§1) The stock solution was prepared at 10 mM in DMSO. Acetylthiocholine iodide (ATC), butyrylthiocholine iodide (BTC), and 5,5′-dithiobis-(2-nitrobenzoic acid) (DTNB) were also purchased from Sigma-Aldrich. Recombinant human AChE (Cat. No. C1682) and pooled human plasma (source of BChE) were used as enzyme sources. The pooled human plasma was prepared as described before ([Vijayaraghavan et al., 2013]). Briefly, pooled plasma samples were prepared by combining equal volumes from a large cohort of patients clinically diagnosed with mild-to-moderate AD. All samples were collected prior to the initiation of any cholinesterase inhibitor treatment. An equal volume of glycerol was then added to the pooled plasma, thoroughly mixed, and aliquoted into small tubes. These aliquots were stored at -20 °C until used in the assay. Each aliquot was used only once to avoid any interference due to freeze-thaw cycles. All other reagents were of analytical grade.\n(§2) Substrate concentrations were varied in a two-fold serial dilution: BTC (5 mM–[…]) for BChE and ATC (0.5 mM–[…]) for AChE. Each well received 20 µL of compound or vehicle, 20 µL of substrate, 20 µL of enzyme/DTNB master mix (for all of them 4x working solution in order to reach final concentration), and 20 µL of buffer. Absorbance at 412 nm was measured every 2 min for 15–20 min.\nTo further elucidate the mechanism of inhibition, inhibition constant (Kᵢ) values and inhibition modes were determined using nonlinear regression models in GraphPad Prism 10. Multiple models were tested, including competitive, noncompetitive, uncompetitive, and mixed inhibition. The optimal model for each compound was selected based on residual analysis and the Akaike Information Criterion (AIC), ensuring robust statistical support. In cases of mixed inhibition, the α parameter was used to characterize the relative affinity of the inhibitor for the enzyme-substrate complex versus the free enzyme."}, "Recombinant human AChE": {"biological_target": "T2, Recombinant human AChE (Homo sapiens, UniProt P22303)", "T2 construct": "purchased Sigma-Aldrich C1682", "T2 sequence (P22303 32-614)": "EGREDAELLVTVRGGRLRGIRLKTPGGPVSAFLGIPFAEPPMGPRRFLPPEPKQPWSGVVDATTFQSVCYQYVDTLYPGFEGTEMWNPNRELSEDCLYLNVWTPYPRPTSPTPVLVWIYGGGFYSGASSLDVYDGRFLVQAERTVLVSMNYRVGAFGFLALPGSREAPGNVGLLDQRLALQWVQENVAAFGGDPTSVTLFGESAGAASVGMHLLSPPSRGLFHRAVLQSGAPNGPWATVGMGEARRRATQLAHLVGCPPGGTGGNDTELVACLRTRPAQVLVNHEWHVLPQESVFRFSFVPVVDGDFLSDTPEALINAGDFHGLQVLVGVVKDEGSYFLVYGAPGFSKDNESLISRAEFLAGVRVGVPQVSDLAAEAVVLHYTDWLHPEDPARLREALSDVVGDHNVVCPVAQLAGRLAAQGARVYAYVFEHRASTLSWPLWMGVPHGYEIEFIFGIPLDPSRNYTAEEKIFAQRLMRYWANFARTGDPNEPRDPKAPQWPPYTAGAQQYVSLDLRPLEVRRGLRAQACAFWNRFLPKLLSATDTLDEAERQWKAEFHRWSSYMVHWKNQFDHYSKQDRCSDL", "experiment": "Single-concentration screening, modified Ellman's assay (AChE)", "format": "biochemical", "conditions": "0.5 mM ATC", "protocol": "as §1, with “Propranolol hydrochloride and diltiazem hydrochloride were obtained from Sigma-Aldrich (St. Louis, MO, United States). The stock” for “The stock”\nCholinesterase activity was measured using a modified Ellman’s colorimetric method adapted for high-throughput screening ([Kumar et al., 2017]; [2020]; [Darreh-Shori et al., 2024]). Assays were conducted in 384-well microplates. Briefly, 20 µL of buffer was initially added to all wells. Subsequently, 20 µL of enzyme solution was added to designated wells, while 20 µL of buffer without enzyme was added to the negative control wells. […] The plate reader (Tecan Infinite M1000) was configured for a 384-well transparent plate in absorbance mode at 412 nm, with kinetic reading taken over 10 min at 1-min intervals. Following incubation, 20 µL of Master Mix Buffer (MMB) cocktail was added to each well using a multichannel pipette, and the plate reading was initiated inmediately. […] Upon completion of the reading, the data file was saved, enzyme activity rates were extracted, and the data were analyzed. Enzyme activity was calculated from the slope of the linear portion of the absorbance-time curve."}, "plasma-derived BChE": {"biological_target": "T3, plasma-derived BChE (Homo sapiens, UniProt P06276)", "T3 construct": "pooled human plasma (source of BChE) were used as enzyme sources; from tissue; host or cells: pooled human plasma from patients with mild-to-moderate AD", "T3 sequence (P06276 29-602)": "as the sequence (P06276 29-602) above", "experiment": "Single-concentration screening, modified Ellman's assay (BChE)", "format": "biochemical", "conditions": "read-out: BChE inhibition relative to vehicle control", "protocol": "Propranolol hydrochloride and diltiazem hydrochloride were obtained from Sigma-Aldrich (St. Louis, MO, United States). The stock solution was prepared at 10 mM in DMSO. Acetylthiocholine iodide (ATC), butyrylthiocholine iodide (BTC), and 5,5′-dithiobis-(2-nitrobenzoic acid) (DTNB) were also purchased from Sigma-Aldrich. Recombinant human AChE (Cat. No. C1682) and pooled human plasma (source of BChE) were used as enzyme sources. The pooled human plasma was prepared as described before ([Vijayaraghavan et al., 2013]). Briefly, pooled plasma samples were prepared by combining equal volumes from a large cohort of patients clinically diagnosed with mild-to-moderate AD. […]\nCholinesterase activity was measured using a modified Ellman’s colorimetric method adapted for high-throughput screening ([Kumar et al., 2017]; [2020]; [Darreh-Shori et al., 2024]). […] The plate reader (Tecan Infinite M1000) was configured for a 384-well transparent plate in absorbance mode at 412 nm, with kinetic reading taken over 10 min at 1-min intervals. Following incubation, 20 µL of Master Mix Buffer (MMB) cocktail was added to each well using a multichannel pipette, and the plate reading was initiated inmediately. […] Upon completion of the reading, the data file was saved, enzyme activity rates were extracted, and the data were analyzed. […]"}, "human BChE": {"biological_target": "T4, human BChE (Homo sapiens, UniProt P06276)", "T4 construct": "pooled human plasma (source of BChE) were used as enzyme sources; from tissue; host or cells: pooled human plasma from patients with mild-to-moderate AD", "T4 sequence (P06276 29-602)": "as above", "experiment": "IC50 determination against BChE in pooled human plasma (Ellman)", "format": "biochemical", "protocol": "as §1, §2"}, "[1]": {"conditions": "physiologically relevant concentration; ref Cruickshank and Neil-Dwyer, 1985; cited from earlier work"}, "BChE": {"tested_on": "BChE", "conditions": "at approximately 0.59 µM in plasma and 10 µM in brain tissue; ref Cruickshank and Neil-Dwyer, 1985; cited from earlier work"}},
  "note": "Where a name gives a salt, the structure may show the parent alone. Read-outs that look alike come from different tables or passages of the source.",
  "data": [
    {"molecule": "CNC(=O)Oc1ccc2c(c1)[C@]1(C)CCN(C)[C@@H]1N2C", "note": "[Physostigmine]", "values": [
      {"measurement": "Inhibition mode (BChE)", "setting": "human plasma BChE", "value": "Competitive"},
      {"measurement": "Inhibition mode (BChE)", "setting": "human plasma BChE; listed as physostigmine", "value": "competitive inhibition"}
    ]},
    {"molecule": "COc1ccc([C@@H]2Sc3ccccc3N(CCN(C)C)C(=O)[C@@H]2OC(C)=O)cc1", "note": "[Diltiazem, diltiazem hydrochloride]", "values": [
      {"measurement": "inhibition at 100 µM", "setting": "Recombinant human AChE; single concentration 100 µM, read-out: AChE inhibition relative to vehicle control", "value": 2, "unit": "%"},
      {"measurement": "inhibition at 100 µM", "setting": "plasma-derived BChE; single concentration 100 µM, 5 mM BTC", "value": "> 80", "unit": "%"},
      {"measurement": "IC50", "setting": "human BChE", "value": 153, "unit": "µM"},
      {"measurement": "Ki", "setting": "human plasma BChE", "value": 2.3, "unit": "µM"},
      {"measurement": "Inhibition mode (BChE)", "setting": "human plasma BChE", "value": "competitive inhibitor"},
      {"measurement": "Inhibition mode (BChE)", "setting": "human plasma BChE; listed as diltiazem", "value": "competitive inhibition"}
    ]},
    {"molecule": "CC(C)NCC(O)COc1cccc2ccccc12", "note": "(stereo not shown) [Propranolol, Propranolol hydrochloride]", "values": [
      {"measurement": "inhibition at 100 µM", "setting": "Recombinant human AChE; read-out: AChE inhibition relative to vehicle control, single concentration 100 µM", "value": 18, "unit": "%"},
      {"measurement": "inhibition at 100 µM", "setting": "plasma-derived BChE", "value": "> 80", "unit": "%"},
      {"measurement": "IC50", "setting": "human BChE; 5 mM BTC as substrate, plasma BChE, read-out: IC50 (BChE)", "value": 55.6, "unit": "µM"},
      {"measurement": "Ki", "setting": "human plasma BChE", "value": 0.19, "unit": "µM"},
      {"measurement": "Inhibition mode (BChE)", "setting": "human plasma BChE", "value": "competitive inhibitor"},
      {"measurement": "Inhibition mode (BChE)", "setting": "human plasma BChE; listed as propranolol", "value": "competitive inhibition"},
      {"measurement": "Concentration that reduced BChE activity to half of its baseline level", "setting": "human plasma BChE; substrate concentration range of 0.08 mM–0.62 mM", "value": 0.19, "unit": "µM"},
      {"measurement": "Concentration in plasma", "setting": "[1]", "value": "approximately 0.59 µM"},
      {"measurement": "Concentration in the brain tissue", "setting": "[1]", "value": "~10", "unit": "µM"},
      {"measurement": "Reduction of BChE activity", "setting": "BChE", "value": "approximately 50%"}
    ]},
    {"molecule": "CCN(CC)C(C)CN1c2ccccc2Sc2ccccc21", "note": "(stereo not shown) [Ethopropazine]", "values": [
      {"measurement": "AChE inhibition relative to vehicle control", "setting": "Recombinant human AChE; single concentration 100 µM", "value": "no inhibition"},
      {"measurement": "IC50", "setting": "human BChE", "value": 2.81, "unit": "µM"},
      {"measurement": "Inhibition mode (BChE)", "setting": "human plasma BChE", "value": "Mixed-competitive"},
      {"measurement": "Inhibition mode (BChE)", "setting": "human plasma BChE; listed as ethopropazine", "value": "mixed competitor"}
    ]}
  ]
}
